# Measured values from patent publication US9890138B2, “Diaminopyrimidine derivatives and processes for the preparation thereof” (YUHAN CORPORATION, priority 2011, dated 2018).
# Where a name gives a salt, the structure may show the parent alone.
# Biological target: T1, human 5-HT4(a) (Homo sapiens, UniProt Q13639)
# T1 construct: host or cells: GeneBlAzer HTR4-CRE-bla CHO-K1 cells
# Assay: Evaluation of agonistic activity in CHO-K1 cells expressing human 5-HT4(a) (GeneBlAzer HTR4-CRE-bla CHO-K1, beta-lactamase reporter)
# Type: cell-based
# Settings: CHO-K1 cells stably expressing human 5-HT4(a)
# Description: Test Example 1: Evaluation of Agonistic Activity in CHO-K1 Cells Expressing Human 5-HT4(a)
# As CHO-K1 cells stably expressing human 5-HT4(a), we used the GeneBlAzer HTR4-CRE-bla CHO-K1 cells (Invitrogen Corp.). The cells were cultured, under the condition of 37[…] and 5% CO2, in a DMEM supplemented with 10% fetal bovine serum (FBS), 25 mM HEPES (pH7.4), 600 μg/ml hygromycin B, 0.1 mM non-essential amino acids, 100 unit/ml penicillin and 100 μg/ml streptomycin. Subcultures were performed three times per one week, each being at less than 80% confluence. At the previous day before treating test compounds, the cells were collected using 0.5% trypsin/EDTA and then diluted with a DMEM supplemented with 1% FBS, 25 mM HEPES, and 0.1 mM non-essential amino acids into 3.125×10^5 cells/ml. 32 μl of the diluted cells were added into 384-well plate (10^4 cells per well) and then incubated overnight. After the overnight culture, 8 μl of the medium having 1% of DMSO was added into the cell-free control well and the non-stimulating control well, respectively. 8 μl of the respective test compound dilutions (which had been prepared by diluting by 100-times with the medium as mentioned in the above) having 1% of DMSO were added to the respective remaining wells. After being cultured in the incubator for 5 hours, the wells of the 384-plate were treated with the substrate solution (8 μl per well) prepared according to the vendor's instruction (i.e., Invitrogen's instruction), and then incubated in the dark room for additional two hours. Agonistic activities on 5-HT4 receptor were evaluated, on the basis of fluorescence values of the cleavage-products by beta-lactamase. After exciting to 410 nm of wavelength using a fluorescence detector (Genios Pro), we measured the fluorescence values at two emission wavelengths (first wavelength: 465 nm, second wavelength: 535 nm). Data were analyzed on the basis of the ratio of fluorescence intensities of each well at the respective wavelengths. Each EC50 value was calculated by non-linear regression analysis using the “GraphPad Prism” program, based on the activities according to 8-different concentrations of the test compounds.
# T1 sequence (Q13639 1-387 isoform Q13639-2): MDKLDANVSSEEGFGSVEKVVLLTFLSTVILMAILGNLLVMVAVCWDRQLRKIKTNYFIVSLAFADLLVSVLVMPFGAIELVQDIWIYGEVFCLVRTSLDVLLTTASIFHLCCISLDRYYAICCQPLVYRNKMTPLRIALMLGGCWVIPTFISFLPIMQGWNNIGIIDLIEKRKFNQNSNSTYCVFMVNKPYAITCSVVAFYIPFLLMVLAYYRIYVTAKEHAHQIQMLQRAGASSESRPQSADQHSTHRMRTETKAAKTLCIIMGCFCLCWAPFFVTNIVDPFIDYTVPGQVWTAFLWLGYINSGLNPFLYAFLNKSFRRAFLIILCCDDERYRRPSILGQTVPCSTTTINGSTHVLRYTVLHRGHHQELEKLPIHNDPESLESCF
row,EC50 [nM],SMILES
1,0.078,CCCc1cc(N2CCC[C@H]2COC)nc(Nc2ccc(C)c(N)c2)n1 [Example 366]
2,0.039,"CCCc1cc(N2CC[C@H](NCC3CCCCC3)C2)nc(Nc2cccc(C#N)c2)n1 [Example 86, (S)-3-{4-[3-(cyclohexylmethylamino)pyrrolidin-1-yl]-6-propylpyrimidin-2-ylamino}benzonitrile]"
3,0.019,"CCCCc1cc(N2CC[C@H](N)C2)nc(Nc2cccc(C#N)c2)n1 [Example 233, (S)-3-[4-(3-aminopyrrolidin-1-yl)-6-butylpyrimidin-2-ylamino]benzonitrile dihydrochloride]"
4,0.015,CCCc1cc(N2CC[C@H](NC(C)=O)C2)nc(Nc2ccc(N)c(C#N)c2)n1 [Example 260]
5,0.12,"CCCc1cc(N2CCC(NCC)C2)nc(Nc2ccc(F)cc2)n1 (stereo not shown) [Example 13, 4-[3-(ethylamino)pyrrolidin-1-yl]-N-(4-fluorophenyl)-6-propylpyrimidin-2-amine]"
6,0.028,CCCc1cc(N2CCC[C@H]2COC)nc(Nc2ccc3cc[nH]c3c2)n1 [Example 189]
7,0.0024,CCCc1cc(N2CC[C@H](NC)C2)nc(Nc2cc(N)cc(C#N)c2)n1 [Example 485]
8,0.003,"CCCc1cc(N2CC[C@H](N)C2)nc(Nc2ccc(C)c(C#N)c2)n1 [Example 354, (S)-5-[4-(3-aminopyrrolidin-1-yl)-6-propylpyrimidin-2-ylamino]-2-methylbenzonitrile dihydrochloride]"
9,0.0066,CCCc1cc(N2CC[C@H](NC3CCCC3)C2)nc(Nc2cccc(C#N)c2)n1 [Example 143]
10,0.023,CCCc1cc(N2CCC(NC(C)=O)C2)nc(Nc2ccc(F)c(N)c2)n1 (stereo not shown) [Example 312]
11,0.39,"CCCc1cc(N2CC[C@H](NCc3cccnc3)C2)nc(Nc2cccc(C#N)c2)n1 [Example 102, (S)-3-{4-propyl-6-[3-(pyridin-3-ylmethylamino)pyrrolidin-1-yl]pyrimidin-2-ylamino}benzonitrile]"
12,0.06,"CCCc1cc(N2CCC[C@H]2CO)nc(Nc2ccc(F)c([N+](=O)[O-])c2)n1 [Example 208, (S)-{1-[2-(4-fluoro-3-nitrophenylamino)-6-propylpyrimidin-4-yl]pyrrolidin-2-yl}methanol]"
13,0.044,"CCCc1cc(N2CCC[C@H]2C)nc(Nc2ccc(C)c([N+](=O)[O-])c2)n1 [Example 321, (R)—N-(4-methyl-3-nitrophenyl)-4-(2-methylpyrrolidin-1-yl)-6-propylpyrimidin-2-amine]"
14,0.072,"CCCc1cc(N2CC[C@H](NC3CCN(Cc4ccccc4)CC3)C2)nc(Nc2cccc(C#N)c2)n1 [Example 137, (S)-3-{4-[3-(1-benzylpiperidin-4-ylamino)pyrrolidin-1-yl]-6-propylpyrimidin-2-ylamino}benzonitrile]"
15,0.0058,CCCc1cc(N2CC[C@H](NC)C2)nc(Nc2ccc(F)c(N)c2)n1 [Example 484]
16,0.18,CCCc1cc(N2CCC[C@H]2C)nc(Nc2ccc3c(c2)N(C(C)=O)CC3)n1 [Example 329]
17,0.36,"CCCc1cc(N2CC[C@H](NC(=O)C3CCCC3)C2)nc(Nc2cccc(C#N)c2)n1 [Example 62, (S)-N-{1-[2-(3-cyanophenylamino)-6-propylpyrimidin-4-yl]pyrrolidin-3-yl}cyclopentanecarboxamide]"
18,0.005,"CCCc1cc(N2CC[C@H](NC)C2)nc(Nc2ccc3cc[nH]c3c2)n1 [Example 121, (S)-N-{4-[3-(methylamino)pyrrolidin-1-yl]-6-propylpyrimidin-2-yl}-1H-indol-6-amine]"
19,0.047,CCCCc1cc(N2CCC[C@H]2C)nc(Nc2ccc(C)c(C#N)c2)n1 [Example 230]
20,0.0021,CCCc1cc(N2CC[C@H](NC)C2)nc(Nc2cc(N)cc(C(F)(F)F)c2)n1 [Example 487]
21,0.0095,CCCCc1cc(N2CC[C@H](NC(C)=O)C2)nc(Nc2ccc(N)c(C(F)(F)F)c2)n1 [Example 441]
22,0.0096,CCCc1cc(N2CC[C@H](NC(=O)CO)C2)nc(Nc2ccc(F)c(C(F)(F)F)c2)n1 [Example 477]
